# Reference: patent publication US8080377B2, “Method for confirming the exposure on chrysene” (Korea Institute of Science and Technology, priority 2008, dated 2011)
# Columns and labels:
# HepG2 cells = test: 44 k whole human genome oligo microarray gene expression, cells treated with chrysene at IC20 for 48 hours (Cy5) vs untreated control (Cy3); format: cell-based
# Description: HepG2 cells were distributed on a 100 mm dish at the concentration of 6×10^6 cell/ml, to which chrysene was treated for 48 hours at the concentration that was determined in Example <1-2>. Total RNA was extracted from the cells using trizol reagent (Invitrogen life technologies, USA) according to the manufacturer's instruction and the extracted RNA was purified by using RNeasy mini kit (Qiagen, USA). The genomic DNA was eliminated during the purification of RNA using RNase-free DNase set (Qiagen, USA). The total RNA was quantified by spectrophotometer and purity was measured by Agilent 2100 Bioanalyzer (Agilent Technologies, USA) and agarose gel-electrophoration.
# For oligo-microarray analysis, cDNA was synthesized using the total RNA extracted from the experimental group treated with chrysene obtained in Example <2-1>. 30 μg of the total RNA and 2 μg (1 μg/μl) of oligo (dT) primer were mixed, followed by reaction for 10 minutes at 65° C. Then, the reaction mixture was put in ice, followed by annealing. Reagents were mixed as shown in Table 1 for reverse transcription of the RNA.
# The total RNA extracted from the control HepG2 cell line was labeled with Cy3-dUTP (green), while the RNA extracted from the experimental HepG2 cell line treated with chrysene was labeled with Cy5-dUTP (red). At this time, the two samples were mixed and purified by Microcon YM-30 column (Millipore, USA).
# Hybridization and washing were performed according to the instruction of GeneoCheck Co., Ltd. Hybridization was performed in a 62° C. oven for 12 hours. At this time, 44 k whole human genome oligo microarray (Agilent, USA) was used as a DNA microarray chip. After washing (with 2×SSC/0.1% SDS for 2 minutes, with 1×SSC for 3 minutes, with 0.2×SSC for 2 minutes), the slide was centrifuged at 800 rpm for 3 minutes and dried.
# Scanning of the hybridized images on the slide was performed by using Genepix 4000B (Axon Instruments, USA). Fluorescence images of the chip washed to eliminate non-binding genes were obtained by laser fluorescence scanner. At this time, green fluorescent images indicated the activity of the gene expressed in the control, whereas red fluorescent images indicated the activity of the gene expressed specifically in the experimental group. […] The scanned images were analyzed by GenePix 4.1 software (Axon Instruments, USA) to calculate the gene expression rate. Based on the obtained data, marker genes for chrysene were selected (see FIG. 2).
# [1] = tested on: salmonella TA110 and TA98 strains; conditions: even under normal metabolic activity of the liver (rats); cited from earlier work
smiles,measurement,setting,value
c1ccc2c(c1)ccc1c3ccccc3ccc21 [chrysene],Ratio of intermediate value,HepG2 cells; ACHE (NM_015831),6.223
same,Ratio of intermediate value,HepG2 cells; ADA (NM_000022),5.213
same,Ratio of intermediate value,HepG2 cells; ADM (NM_001124),2.186
same,Ratio of intermediate value,HepG2 cells; ADORA2B (AK172851),2.249
same,Ratio of intermediate value,HepG2 cells; APOL2 (AF324224),2.105
same,Ratio of intermediate value,HepG2 cells; APOL3 (NM_145641),3.196
same,Ratio of intermediate value,HepG2 cells; AXL (NM_021913),3.268
same,Ratio of intermediate value,HepG2 cells; B2M (NM_004048),2.006
same,Ratio of intermediate value,HepG2 cells; BATF (BQ053419),2.221
same,Ratio of intermediate value,HepG2 cells; BTG3 (BC011957),2.74
same,Ratio of intermediate value,HepG2 cells; C1R (NM_001733),2.893
same,Ratio of intermediate value,HepG2 cells; C1S (NM_001734),3.018
same,Ratio of intermediate value,HepG2 cells; C4A (NM_001002029),2.002
same,Ratio of intermediate value,HepG2 cells; C20orf139 (H18681),4.383
same,Ratio of intermediate value,HepG2 cells; CCL3 (CR591007),3.347
same,Ratio of intermediate value,HepG2 cells; CCL3L1 (BF662985),2.839
same,Ratio of intermediate value,HepG2 cells; CCL14 (NM_004167),5.103
same,Ratio of intermediate value,HepG2 cells; CCL20 (BC020698),2.199
same,Ratio of intermediate value,HepG2 cells; CCL23 (NM_005064),2.761
same,Ratio of intermediate value,HepG2 cells; CCND3 (AK096276),2.292
same,Ratio of intermediate value,HepG2 cells; CD3D (NM_000732),54.94
same,Ratio of intermediate value,HepG2 cells; CD9 (NM_001769),4.153
same,Ratio of intermediate value,HepG2 cells; CD58 (NM_001779),2.794
same,Ratio of intermediate value,HepG2 cells; CD79B (AK223210),15.33
same,Ratio of intermediate value,HepG2 cells; CDKN2B (NM_078487),2.559
same,Ratio of intermediate value,HepG2 cells; CSF1 (BC021117),4.788
same,Ratio of intermediate value,HepG2 cells; CXCL12 (AK090482),2.842
same,Ratio of intermediate value,HepG2 cells; DDX58 (NM_014314),2.333
same,Ratio of intermediate value,HepG2 cells; DKFZp451C2311 (AL832451),2.639
same,Ratio of intermediate value,HepG2 cells; DNAJA2 (AF116720),10.94
same,Ratio of intermediate value,HepG2 cells; DNAJB2 (BC040494),2.053
same,Ratio of intermediate value,HepG2 cells; DNAJB4 (AB209922),2.872
same,Ratio of intermediate value,HepG2 cells; DUSP1 (AK127679),2.383
same,Ratio of intermediate value,HepG2 cells; DUSP13 (NM_001007271),7.031
same,Ratio of intermediate value,HepG2 cells; E2F7 (NM_203394),3.647
same,Ratio of intermediate value,HepG2 cells; EBI3 (NM_005755),5.607
same,Ratio of intermediate value,HepG2 cells; ELF4 (NM_001421),4.316
same,Ratio of intermediate value,HepG2 cells; F2RL1 (NM_005242),2.258
same,Ratio of intermediate value,HepG2 cells; F8 (NM_000132),2.415
same,Ratio of intermediate value,HepG2 cells; FAM14A (NM_032036),2.706
same,Ratio of intermediate value,HepG2 cells; FOS (BX647104),2.287
same,Ratio of intermediate value,HepG2 cells; FOSL1 (NM_005438),5.643
same,Ratio of intermediate value,HepG2 cells; GPX1 (NM_201397),2.85
same,Ratio of intermediate value,HepG2 cells; GPX2 (BE512691),2.014
same,Ratio of intermediate value,HepG2 cells; HLA-DOA (NM_002119),4.209
same,Ratio of intermediate value,HepG2 cells; HRAS (NM_005343),2.3
same,Ratio of intermediate value,HepG2 cells; HSPA4L (NM_014278),4.71
same,Ratio of intermediate value,HepG2 cells; HSPA8 (NM_006597),2.313
same,Ratio of intermediate value,HepG2 cells; HSPCA (AJ890082),2.544
same,Ratio of intermediate value,HepG2 cells; ICOSLG (CB055213),3.644
same,Ratio of intermediate value,HepG2 cells; IL4R (NM_000418),2.254
same,Ratio of intermediate value,HepG2 cells; IL11 (NM_000641),4.521
same,Ratio of intermediate value,HepG2 cells; ITCH (NM_031483),2.301
same,Ratio of intermediate value,HepG2 cells; KLF6 (NM_001008490),2.3
same,Ratio of intermediate value,HepG2 cells; KLRC3 (NM_002260),2.942
same,Ratio of intermediate value,HepG2 cells; LIF (NM_002309),8.088
same,Ratio of intermediate value,HepG2 cells; LY96 (BM918324),5.439
same,Ratio of intermediate value,HepG2 cells; MAPK11 (BC027933),2.256
same,Ratio of intermediate value,HepG2 cells; MAPK13 (AB209586),2.326
same,Ratio of intermediate value,HepG2 cells; MBL2 (NM_000242),2.755
same,Ratio of intermediate value,HepG2 cells; MGC3207 (AL834276),2.364
same,Ratio of intermediate value,HepG2 cells; MR1 (AF031469),7.059
same,Ratio of intermediate value,HepG2 cells; NALP6 (AY154461),2.392
same,Ratio of intermediate value,HepG2 cells; NFKBIA (NM_020529),2.242
same,Ratio of intermediate value,HepG2 cells; NINJ1 (NM_004148),2.107
same,Ratio of intermediate value,HepG2 cells; NK4 (BF569086),3.138
same,Ratio of intermediate value,HepG2 cells; NR3C1 (U25029),2.274
same,Ratio of intermediate value,HepG2 cells; OAS1 (NM_016816),3.711
same,Ratio of intermediate value,"HepG2 cells; PAI, PAI1, PAI-1, PLANH1 (BX649164)",29.05
same,Ratio of intermediate value,HepG2 cells; PARD6B (BC060847),2.507
same,Ratio of intermediate value,HepG2 cells; PARD6G (BC060797),3.502
same,Ratio of intermediate value,HepG2 cells; PGF (NM_002632),2.436
same,Ratio of intermediate value,HepG2 cells; PPM1D (NM_003620),3.647
same,Ratio of intermediate value,HepG2 cells; PPP1R9B (BC008564),3.169
same,Ratio of intermediate value,HepG2 cells; PRNP (NM_000311),2.313
same,Ratio of intermediate value,HepG2 cells; PROCR (NM_006404),24.53
same,Ratio of intermediate value,HepG2 cells; PTGES (AK127663),3.184
same,Ratio of intermediate value,HepG2 cells; PTP4A1 (BC040303),3.183
same,Ratio of intermediate value,HepG2 cells; RAE1 (AK097024),2.921
same,Ratio of intermediate value,HepG2 cells; RPS6KA1 (BC014966),2.11
same,Ratio of intermediate value,HepG2 cells; S100A6 (BM904612),5.938
same,Ratio of intermediate value,HepG2 cells; SAA4 (BG564326),4.076
same,Ratio of intermediate value,HepG2 cells; SASH1 (NM_015278),2.368
same,Ratio of intermediate value,HepG2 cells; SEMA7A (AF069493),2.531
same,Ratio of intermediate value,HepG2 cells; SERTAD1 (AK074652),4.835
same,Ratio of intermediate value,HepG2 cells; SFN (BC023552),2.525
same,Ratio of intermediate value,HepG2 cells; SGK2 (BC006523),4.65
same,Ratio of intermediate value,HepG2 cells; STAT1 (NM_007315),2.268
same,Ratio of intermediate value,HepG2 cells; TAP1 (BX648013),4.08
same,Ratio of intermediate value,HepG2 cells; TAPBP (NM_172208),7.02
same,Ratio of intermediate value,HepG2 cells; TGFA (NM_003236),2.487
same,Ratio of intermediate value,HepG2 cells; TLR3 (BC068487),2.541
same,Ratio of intermediate value,HepG2 cells; TMPRSS6 (NM_153609),2.118
same,Ratio of intermediate value,HepG2 cells; TP53I11 (BC045666),6.008
same,Ratio of intermediate value,HepG2 cells; TREM2 (NM_018965),43.67
same,Ratio of intermediate value,HepG2 cells; TRIM22 (BC035582),13.79
same,Ratio of intermediate value,HepG2 cells; VWF (NM_000552),2.476
same,Ratio of intermediate value,HepG2 cells; XLKD1 (NM_006691),10.06
same,Ratio of intermediate value,HepG2 cells; ZAP70 (AL832287),3.83
same,Ratio of intermediate value,HepG2 cells; ZCSL2 (AK092040),2.303
same,genes identified to be down-regulated (2.0 fold less),"HepG2 cells; out of 44,000 genes",0.82%
same,genes identified to be up-regulated (2.0 fold higher),"HepG2 cells; out of 44,000 genes",0.73%
same,number of genes identified to be down-regulated,"HepG2 cells; out of 44,000 genes",361 genes
same,number of genes identified to be up-regulated,"HepG2 cells; out of 44,000 genes",323 genes
same,mutagenicity in Ames tests,[1],showed mutagenicity
